Reference: patent publication EP1170007A1, “REMEDIES” (Takara Shuzo Co, Ltd., priority 1999, dated 2000)

Experiments:
[1] = test system: nerve growth factor production by L-M cells; assay: Enhancement of nerve growth factor production in L-M cells (enzyme immunoassay); assay type: cell-based, Rat; settings: for Nerve growth factor concentration: 24 hours, 0 µM control 0.132
Method: Rat fibroblast L-M cells (ATCC CCL-1.2) were suspended in a M199 medium (Gibco) containing 0.5% Bacto Peptone (Gibco) at a concentration of 1.0 x 10^5 cells/ml. 1 ml of the suspension was inoculated into each well of a 24-well plate. The cells were cultured aseptically. After culturing for 2 days, the medium was removed and substituted with a M199 medium containing 0.5% bovine serum albumin (Sigma). Then, cyclopentenone (final concentration of 1 to 25 µM), 4HCP (Aldrich) (final concentration of 12.5µM) or dipropionylcyclopentenone (final concentration of 3.1 to 9.4 µM) was added thereto. […]
After completion of the incubation, the concentration of nerve growth factor in the culture was measured by enzyme immunoassay (NGF Emax Immuno Assay System: Promega). […]

[2] = test system: HGF production, MRC-5 cells; assay: Enhancement of HGF production in MRC-5 cells (ELISA); assay type: cell-based, Human; settings: 24 hours, negative control defined as 100% (7.2 ng/ml)
Method: MRC-5 cells (CCL171, Dainippon Pharmaceutical) were suspended in a DME medium (Bio Whittaker) containing 10% fetal calf serum at a concentration of 1 x 10^5 cells/ml. 500 µl of the suspension was placed into a 48-well cell culture plate. After culturing at 37°C in the presence of 5% CO2 for 24 hours, the medium was exchanged for a DME medium containing 1% fetal calf serum. Then, one of samples was added thereto. The plate was incubated for additional 24 hours. The medium was then recovered, and the amount of HGF in the culture medium was measured using Quantikine Human Hepatocyte Growth Factor (HGF) ELISA Kit (Funakoshi). The amount of HGF produced was expressed defining a negative control as 100%. In this case, the amount of HGF produced for the negative control was 7.2 ng/ml. Cyclopentenone (at a final concentration of 20, 40 or 160 µM), GM (at a final concentration of 20, 40, 80 or 160 µM), or dipropionylcyclopentenone (at a final concentration of 32 or 64 µM) was added as a sample. As a negative control, distilled water was added in the same volume as the sample. As a positive control, prostaglandin E1 was added at a final concentration of 0.01, 0.1, 1 or 10 µM.

[3] = test system: mouse; assay: Single oral dose toxicity in mouse; assay type: in vivo; settings: single dose orally administered to a mouse at 100 mg/kg

Substance: dipropionylcyclopentenone
- Nerve growth factor concentration ([1]; 3.1 µM): 0.164 ng/mL
- Nerve growth factor concentration ([1]; 6.3 µM): 0.259 ng/mL
- Nerve growth factor concentration ([1]; 9.4 µM): 0.257 ng/mL
- production of nerve growth factor by L-M cells (result in words) ([1]; 24 hours incubation): enhanced the production of nerve growth factor by L-M cells in a concentration-dependent manner
- Increase in HGF production ([2]; 32 µM): 120%
- Increase in HGF production ([2]; 64 µM): 144%
- death after single oral dose [3]: no example of death was observed
